Test results published in patent US20240392249A1, “HUMAN HEPATOCYTE CULTURE MEDIUM AND CONDITIONED MEDIUM OF IN VITRO CULTURED HUMAN HEPATOCYTES AND USES THEREOF” (UNIVERSITY OF SOUTHERN CALIFORNIA, priority 2021, published 2024).

Columns and labels:
CYP3A4 [1] = assay: CYP3A4 expression and inducibility in HH (immunoblotting); assay type: cell-based, human; settings: HH cultured with DMSO2, 7-day treatment
Text: Then, and total RNA and cell lysates were subjected to immunoblotting analysis (left) and qPCR analysis (right) to determine the inducibility of indicated molecules. Graph bars represent mean±SD; *, ** and *** indicate p<0.05 and p<0.01 and p<0.001 by one-way ANOVA.

CYP3A4 [2] = target: T1, CYP3A4 (Homo sapiens, UniProt P08684); assay: CYP3A4 activity in cultured HH, P450-Glo Assays; assay type: in vitro ADME; settings: in the presence of the organic compound
T1 construct: endogenous in cells; host or cells: freshly isolated human hepatocytes (HH) in culture
Protocol: (§1) Then, cells were used for the assessment of CYP3A4 (left), and CYP2A9 (middle) activity in the presence of organic compounds (DMSO or DMSO2) using P450-Glo™ Assays (Promega). For the assessment of CYP2E1 activity (right) was assessed using Vivid™ CYP2E1 Blue Screening Kit (Thermo Fisher). Graph bars represent mean±SD; *, ** and *** indicate p<0.05 and p<0.01 and p<0.001 by one-way ANOVA; n.s, not significant; n.d., not detected.

CYP2E1 [3] = target: CYP2E1 (Homo sapiens, UniProt P05181); assay: CYP2E1 activity, Vivid CYP2E1 Blue Screening Kit; settings: in the presence of the organic compound
Protocol: as §1
For the assessment of CYP2E1 activity (right) was assessed using VividTM CYP2E1 Blue Screening Kit (Thermo Fisher).

HH [4] = assay: Screen of organic compounds as DMSO substitution: morphology and hepatocyte marker gene expression of recovered HH; assay type: cell-based, human; settings: substitution for DMSO, additional 7 and 14 days culture
Text: Then, total cell lysates were subjected to immunoblotting analysis for the detection of indicated molecules. NT; non treatment.
Then, HH was subjected to immunofluorescent analysis for the detection of MRP2 (Arrowheads), F-actin, DAPI. The bar indicates 25 μm.
In search of the DMSO substitution, we screened numerous organic compounds. The list of chemicals (Table 3) is selected based on the shared characteristics with DMSO, such as but not limited to the molecular size, solubility to the cell culture medium, stability at the standard temperature (melting and boiling temperatures), feasibility in handling (no significant chemical hazardous concern), and the cost. […] With the highest possible concentration, recovered HH (7 days old) were cultured for additional 7 and 14 days with refreshing of the medium at a frequency of every 3-4 days. On day 14 and 21, cells were subjected to the morphological and cell fate assessment along with the functional assessment (FIGS. 7 and 8).

ADH = ADH activity (NADH production rate, absorbance at 340 nm) in HH cell homogenate; assay type: biochemical, human; settings: in the presence of the organic compound
Protocol: Hepatoma cells (Huh7 and HepG2) were used as negative controls. (B) The relative ADH activity of HH were assessed in the absence of organic compounds (NT), as well as in the presence of DMSO or DMSO2 using the same method described in (A).

CYP2A9 = CYP2A9 (Homo sapiens, UniProt P11712); settings: HH, in the presence of the organic compound
Protocol: as §1

HH [5] = assay: Ethanol metabolism to acetate by cultured HH (Acetate Colorimetric Assay Kit); assay type: cell-based; settings: 10 mM ethanol, 24 hours, sealing apparatus, compared with human liver
Protocol: Then, HH were cultured with either DMSO or DMSO2 containing maintenance/application medium in the absence (0 mM) or presence of 10 mM ethanol for 24 hours. The sealing apparatus was applied throughout the course of ethanol treatment. At the end of the ethanol treatment, cell culture medium was harvested followed by the measurement of acetate concentration using Acetate Colorimetric Assay Kit (Biovision). […] The rate of acetate production was normalized by the cell number of the […] in order to assess the comparability of EtOH metabolizing capacity of HH with each given condition to that of the health human liver (right).

HH [6] = assay: Withdrawal of DMSO from recovered HH: MRP2 immunofluorescence, immunoblotting, qPCR; assay type: cell-based, human; settings: after 7 days recovery, additional 4 days
Text: Then, HH were subjected to (A) immunofluorescent analysis for the detection of MRP2 (Arrowheads), (B) immunoblotting and (C) qPCR analysis for the detection of indicated hepatocytes marker molecules. The bar indicates 25 μm.

HH [7] = assay: Role of DMSO in the cell fate recovery of freshly isolated HH; assay type: cell-based, human; settings: 7 days
Text: Then, HH were subjected to (A) immunofluorescent analysis for the detection of MRP2 (Arrowheads), (B) immunoblotting and (C) qPCR analysis for the detection of indicated hepatocytes marker molecules at the indicated time points.

CYP2E1 [8] = assay type: cell-based; settings: human, 7 days
Protocol: FIG. 9 show the impact of DMSO on the inducibility of CYP genes. Freshly isolated HHs were cultured for 7 days with HH recovery media (dHCGM) followed by the maintenance/application medium containing DMSO or DMSO2 for another 7 days in the presence of indicated concentration of CYP3A4 inducers ([…] and carbamazepine) (left) and CYP2El inducers (ethanol and isoniazid) (right). Then, and total RNA and cell lysates were subjected to immunoblotting analysis (left) and qPCR analysis (right) to determine the inducibility of indicated molecules.

HH [9] = settings: HH cultured with DMSO2-containing medium, only when tight-sealing apparatus is applied
Text: Due to the high volatility of ethanol, it evaporates rapidly at a much higher rate that the rate of hepatocytes metabolizes.

Chain of CYP2E1 (Homo sapiens, UniProt P05181) (P05181 whole entry): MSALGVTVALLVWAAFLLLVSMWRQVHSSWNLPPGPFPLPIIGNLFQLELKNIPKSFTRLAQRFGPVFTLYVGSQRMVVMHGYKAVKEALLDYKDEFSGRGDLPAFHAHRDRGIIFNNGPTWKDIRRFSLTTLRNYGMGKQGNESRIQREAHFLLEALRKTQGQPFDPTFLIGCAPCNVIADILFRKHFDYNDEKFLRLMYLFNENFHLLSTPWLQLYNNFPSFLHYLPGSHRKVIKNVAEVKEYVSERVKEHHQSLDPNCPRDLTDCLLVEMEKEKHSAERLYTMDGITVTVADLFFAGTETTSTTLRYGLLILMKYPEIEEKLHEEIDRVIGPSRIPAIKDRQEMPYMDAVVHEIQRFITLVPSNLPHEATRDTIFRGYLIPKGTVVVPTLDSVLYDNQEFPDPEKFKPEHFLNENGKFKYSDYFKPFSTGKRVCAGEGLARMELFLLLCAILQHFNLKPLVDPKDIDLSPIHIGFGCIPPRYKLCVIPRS
T1 sequence (P08684 whole entry): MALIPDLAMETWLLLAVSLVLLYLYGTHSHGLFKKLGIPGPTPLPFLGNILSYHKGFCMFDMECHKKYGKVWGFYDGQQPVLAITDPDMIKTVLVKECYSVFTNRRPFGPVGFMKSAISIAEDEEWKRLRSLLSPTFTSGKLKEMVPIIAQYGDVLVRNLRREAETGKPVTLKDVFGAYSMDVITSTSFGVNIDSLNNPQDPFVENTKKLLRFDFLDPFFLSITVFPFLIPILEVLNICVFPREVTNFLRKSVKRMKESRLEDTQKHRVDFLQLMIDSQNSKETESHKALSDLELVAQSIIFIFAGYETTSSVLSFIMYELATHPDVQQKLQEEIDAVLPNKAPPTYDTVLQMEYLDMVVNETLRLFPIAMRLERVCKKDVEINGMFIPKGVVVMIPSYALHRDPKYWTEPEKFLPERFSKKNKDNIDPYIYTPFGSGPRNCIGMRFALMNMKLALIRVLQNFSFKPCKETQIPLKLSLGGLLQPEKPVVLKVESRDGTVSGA
Chain of CYP2A9 (P11712 whole entry): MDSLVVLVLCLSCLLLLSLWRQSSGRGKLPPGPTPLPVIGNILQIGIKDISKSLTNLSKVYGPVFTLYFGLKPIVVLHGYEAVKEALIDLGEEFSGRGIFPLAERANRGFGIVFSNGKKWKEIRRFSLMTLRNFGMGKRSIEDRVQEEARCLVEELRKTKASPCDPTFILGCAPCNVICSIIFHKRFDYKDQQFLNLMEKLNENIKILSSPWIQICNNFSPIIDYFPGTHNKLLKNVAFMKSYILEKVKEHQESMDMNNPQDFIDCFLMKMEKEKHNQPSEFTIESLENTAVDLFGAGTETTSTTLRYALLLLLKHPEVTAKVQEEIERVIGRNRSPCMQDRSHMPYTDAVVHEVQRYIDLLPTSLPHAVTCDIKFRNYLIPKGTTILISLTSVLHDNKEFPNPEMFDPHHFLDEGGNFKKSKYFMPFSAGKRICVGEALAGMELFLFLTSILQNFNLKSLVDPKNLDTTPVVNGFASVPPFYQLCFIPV

NC(=O)N1c2ccccc2C=Cc2ccccc21 [Carbamazepine]
CYP3A4 induction by inducer (CYP3A4 [1]): CYP3A4 induction in a dose dependent manner

CS(C)(=O)=O [DMSO2, dimethyl sulfone]
effect on metabolic activity of CYP3A4 (CYP3A4 [2]): substantially less than that of DMSO-containing medium | effect on metabolic activity of CYP2E1 / CYP2E1 pathway (CYP2E1 [3]): substantially less than that of DMSO-containing medium | maintenance of morphology and marker genes expression of recovered HH (HH [4]): capable of maintaining the morphology and the marker genes expression at a level comparable to that of DMSO-containing medium

C[S+](C)[O-] [DMSO, dimethyl sulfoxide]
effect on ADH activity / ADH pathway (ADH): inhibition of ADH activity | effect on metabolic activity of CYP3A4 (CYP3A4 [2]): potently prohibits | effect on CYP2A9 activity (CYP2A9): inhibition of DMPK enzymes | effect on metabolic activity of CYP2E1 / CYP2E1 pathway (CYP2E1 [3]): reciprocal changes were also seen in CYP2E1 | ethanol metabolism by HH (acetate production) (HH [5]): inhibition of ethanol metabolism to the production of acetate | effect of withdrawal of DMSO on hepatocytic function and morphology (HH [6]): rapid deterioration of the hepatocytic function and morphology | recovery of HH from cell injury and stress when cultured without DMSO during Phase 1 (HH [7]): would not promote the recovery

CCO [Ethanol]
CYP2E1 induction by inducer (CYP2E1 [8]): lack of CYP2E1 induction | lipid droplet accumulation in HH (HH [9]): accumulation of lipid droplet (LD)

NNC(=O)c1ccncc1 [Isoniazid]
CYP2E1 induction by inducer (CYP2E1 [8]): lack of CYP2E1 induction

[O-][S+]1CCCC1 [TMSO, Tetramethylene sulfoxide]
effect on ADH activity / ADH pathway (ADH): inhibition of alcohol metabolism enzymes | maintenance of morphology and marker genes expression of recovered HH (HH [4]): capable of maintaining the morphology and the marker genes expression at a level comparable to that of DMSO-containing medium
